How the values were obtained:
MO3-13 cells = assay: Determination of reactive oxygen species (DCF fluorescence) in MO3-13 cells; assay type: cell-based, human; conditions: 50 μM peptide 30 min
Method: FIG. 10A: DDSK peptide reverts the effects of Ig from MS patients on ROS levels in MO3-13 cells. MO3-13 cells were grown to semi-confluence in 24 multiwell plates and incubated for 18 h in medium containing 0.2% FBS. The cells were washed twice with FBS free medium, incubated with 50 μM of DDSK for 30 min and then with 200 μg/ml of IgG from Control (IgGCtr) or MS (IgGMS) patients for 30 min. Then, the cells were incubated with 10 μM DCHF-DA for 10 min, washed three times and DCF fluorescence was measured using a plate reader fluorometer. The histograms show the mean+/−SEM values obtained in 5 different experiments from 7 control and 7 MS subjects. # p<0.05 vs IgGCtr; *p<0.05 vs IgGMS.
MO3-13 cells were grown to semi-confluence in 24 multiwell plates and incubated for 18 h in medium containing 0.2% FBS. The cells were washed twice with FBS free medium, incubated with 50 μM of Scrambled peptide (Sc) for 30 min and then with 200 μg/ml of IgG from Control (IgGCtr) or MS (IgGMS) patients for 30 min. Then, the cells were incubated with 10 μM DCHF-DA for 10 min, washed three times and DCF fluorescence was measured using a plate reader fluorometer. The histograms show the mean+/−SEM values obtained from 3 control and 3 MS subjects. *p<0.05 vs IgGCtr.
ROS levels were determined using the membrane-permeant fluorogenic probe 5,6-carboxy-2′,7′-dichlorofluoresceindiacetate, DCHFDA (Molecular Probes, Leiden, the Netherlands). The assay was based on the fluorescence detection of dichlorofluorescein (DCF), formed by ROS-mediated oxidation of the non-fluorescent precursor, dichlorofluorescin.
MO3-13 cells were grown to semi-confluence in 24 multiwell plates (45000 cell/well) and incubated for 18 h in medium containing 0.2% FBS before the experiments. […] DCF fluorescence was measured using the plate reader Fluoroskan Ascent FL fluorometer (Thermo Electron Oy, Vantaa, Finland) and data analyzed by Ascent software.

[1] = test system: 5HT2a receptor downstream signaling in MO3-13 cells; assay: Western blotting of proteins downstream of the 5HT2a receptor in MO3-13 cells; assay type: cell-based, human
Method: The same membrane was also incubated with α-Tubulin antibody to show the protein loading.
Western blotting analysis of DUOX1/2 expression levels in MO3-13 cells harvested for 18 h in medium containing 0.2% FBS, preincubated with DDSK (50 uM) for 30 min in serum-free medium and then stimulated for 30 min with IgG (200 μg/ml) purified from serum of Control (IgCtr) or MS (IgMS) patients.
Western blotting analysis of P-ERK1/2 expression levels in MO3-13 cells harvested for 18 h in medium containing 0.2% FBS, preincubated with DDSK (50 uM) for 30 min in serum-free medium and then stimulated for 30 min with IgG (200 μg/ml) purified from serum of Control (Ig Ctr) or MS (IgMS) patients.
Western blotting analysis of NOX3 expression levels in MO3-13 cells harvested for 18 h in medium containing 0.2% FBS, preincubated with DDSK (50 uM) for 30 min in serum-free medium and then stimulated for30 min with IgG (200 μg/ml) purified from serum of Control (IgCtr) or MS (IgMS) patients.
Western blotting analysis of H-Ras expression levels in MO3-13 cells harvested for 18 h in medium containing 0.2% FBS, preincubated with DDSK (50 uM) for 30 min in serum-free medium and then stimulated for30 min with IgG (200 μg/ml) purified from serum of Control (Ig Ctr) or MS (IgMS) patients. The same membrane was incubated with α-Tubulin antibody to show the protein loading.
Total cells lysates were obtained in RIPA buffer (50 mM Tris-HCl, pH 7.5, NaCl 150 mM, 1% NP40, 0.5% deoxycholate, 0.1% SDS) containing 2.5 mM Na-pyrophosphate, 1 mM β-glycerophosphate, 1 mM NaVO4, 1 mM NaF, 0.5 mM PMSF, and a cocktail of protease inhibitors (Roche, USA). The cells were kept for 15 min at 4° C. and disrupted by repeated aspiration through a 21-gauge needle. Cell lysates were centrifuged for 10 min at 13000 rpm and the pellets were discarded. Fifty micrograms of total proteins were subjected to SDS-PAGE under reducing conditions. […] Membranes were placed in 5% non-fat milk in […], 0.5% Tween 20 (TBST) at 4° C. for 2 h to block the nonspecific binding sites. Filters were incubated with specific antibodies before being washed three times in TBST and then incubated with a peroxidase-conjugated secondary antibody (Santa Cruz). After washing with TBST, peroxidase activity was detected with the ECL system (GE-Healthcare, UK).
The filters were also probed with an anti α-tubulin antibody (Sigma, USA). […] Densitometric values were normalized to α-tubulin.

[2] = 50 uM peptide 30 min, then IgMS 200 μg/ml 30 min

Question: What does the source list for DDSKVFKEGS?
Answer: effect of peptide preincubation on ROS levels of IgG MS treated cells (MO3-13 cells; then 200 μg/ml IgG MS 30 min): reverted the effect; effect of peptide preincubation on ROS levels of IgGCtr treated samples (MO3-13 cells; then 200 μg/ml IgGCtr 30 min): did not significantly affect; effect of peptide preincubation on IgMS-increased DUOX1/2 protein levels [1, 2]: reverted the effect; effect of peptide preincubation on IgMS-increased HaRas protein levels [1, 2]: reverted the effect; effect of peptide preincubation on IgMS-increased NOX3 protein levels [1, 2]: reverted the effect; effect of peptide preincubation on IgMS-increased P-ERK1/2 protein levels [1, 2]: reverted the effect; effect of peptide on protein levels (DUOX1/2, P-ERK1/2, NOX3, HaRas) in cells incubated with IgG from control subjects ([1]; 50 uM peptide, IgG control 200 μg/ml): did not significantly modify
